Assay results reported in ChEMBL document CHEMBL1201862, “PubChem BioAssay data set” (2004).
The source made the active and inactive calls.

How the values were obtained:
[1] = target: T1, Sphingosine 1-phosphate receptor 4 (Homo sapiens, UniProt O95977); assay: potency of S1P4 activators – cell-based, fluorescence, synthesized compounds, late-stage follow-up (AID 463107); assay type: functional
T1 sequence (O95977 whole entry): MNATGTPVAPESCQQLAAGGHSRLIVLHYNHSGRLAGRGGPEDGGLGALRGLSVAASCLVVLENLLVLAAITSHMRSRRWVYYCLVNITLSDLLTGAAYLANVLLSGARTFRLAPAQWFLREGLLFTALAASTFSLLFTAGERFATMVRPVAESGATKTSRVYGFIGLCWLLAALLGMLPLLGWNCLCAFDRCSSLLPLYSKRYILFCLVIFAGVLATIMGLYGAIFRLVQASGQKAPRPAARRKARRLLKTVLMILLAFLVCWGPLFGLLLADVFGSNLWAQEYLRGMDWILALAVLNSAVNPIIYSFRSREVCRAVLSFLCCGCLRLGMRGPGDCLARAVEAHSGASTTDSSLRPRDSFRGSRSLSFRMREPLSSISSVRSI

[2] = Cytotoxicity screening for potential Inhibitors of Bacterial Capsule Biogenesis. [Related pubchem assays (depositor defined):AID488970]; assay type: functional
Procathepsin L = Procathepsin L (Homo sapiens, UniProt P07711)
Aspartyl aminopeptidase = Aspartyl aminopeptidase (Plasmodium falciparum 3D7, UniProt Q8I2J3)
[3] = target: Alkaline phosphatase, placental type (Homo sapiens, UniProt P05187); assay: human placental alkaline phosphatase inhibition – biochemical, luminescence, confirmation (AID 1512); assay type: functional
[4] = Luminescence Cell-Based Dose Retest to Confirm Inhibitors of Cancer Stem Cells. [Related pubchem assays (depositor defined):AID2717, AID2721]; assay type: functional; conditions: Homo sapiens
INS1 = assay: INS-1E survival protection against cytokine death – cell-based, luminescence, retest, dose response (AID 449756); assay type: functional; conditions: Rattus norvegicus;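 note: cell death triggered by IL-1 beta plus TNF-alpha plus IFN-gamma mixture; protective hits raise ATP signal compared with cytokine alone wells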
[5] = Trypanosoma cruzi growth suppression in host cells – NIH3T3 host cells, beta-gal luminescence, confirmation (AID 2044); assay type: functional, cell-based;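 note: intracellular parasites grown in NIH/3T3 mouse fibroblasts as host cells; luminescent beta-galactosidase reporter signal from transgenic T. cruzi replicating inside host cells; inhibitors lower the luminescence signal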
[6] = NIH-3T3 fibroblast cytotoxicity, dose response, cytotoxicity control, cell-based, fluorescence, Alamar Blue, secondary assay (AID 2327); assay type: functional;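 note: NIH-3T3 mouse fibroblasts cultured with fluconazole at 8 µg/mL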
cells [7] = assay: cells
cells [8] = assay type: functional
[9] = HepG2 cell cytotoxicity, dose response, cytotoxicity control for non-replicating M. tuberculosis project (AID 489018); assay type: functional; conditions: Mycobacterium tuberculosis
Trypanosoma cruzi = assay: anti-trypanosomal activity in host cells – cell-based, plate reader, dry powder, set 3, dose response (AID 493197); assay type: functional
[10] = A cytotoxicity screen of small molecule inhibitors of the PhoP region in Salmonella typhi identified in the primary screen. [Related pubchem assays: 1850, 1864, 1985 ]; assay type: functional
[11] = NIH/3T3 cell viability loss – mouse embryonic fibroblasts, dry powder, set 2, cytotoxicity control, dose response (AID 493247); assay type: functional, cell-based; conditions: Fibroblast
[12] = THP-1 cell cytotoxicity, dose response, cytotoxicity control for non-replicating M. tuberculosis project (AID 489025); assay type: functional
[13] = Vero E6 cell cytotoxicity, dose response, cytotoxicity control for non-replicating M. tuberculosis project, secondary assay (AID 492998); assay type: functional, VeroE6; conditions: Vero C1008
[14] = fluconazole-exposed Candida albicans growth modulators – fluorescence, retest, confirmation (AID 2467); assay type: functional, cell-based
[15] = target: T2, Eukaryotic translation initiation factor 2-alpha kinase 3 (Homo sapiens, UniProt Q9NZJ5); assay: Counterscreen assay for PERK inhibitors: Dose response cell-based high throughput screening assay to measure inhibition of PERK at 6 hours. [Related pubchem assays: 1522, 1416 ]; assay type: functional
[16] = target: T2, Eukaryotic translation initiation factor 2-alpha kinase 3; assay: Dose response cell-based high-throughput screening assay to measure PERK inhibition. [Related pubchem assays: 1416 ]; assay type: functional
[17] = target: T3, Polyadenylate-binding protein 1 (Homo sapiens, UniProt P11940); assay: MLLE binding blockers, Cy5 peptide tracer – biochemical, fluorescence polarization, Cy5-PAM2 peptide, secondary, miRNA deadenylation inhibitor project, dose response (AID 602260); assay type: functional; conditions: read-out: IC50_Mean
[18] = NIH3T3 cell viability loss – ATP luminescence, mouse fibroblasts, counter-screen, dose response (AID 2010); assay type: functional, cell-based;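 note: cells exposed to compound for about 90 hours before reading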
[19] = target: Neuropeptide Y receptor type 2 (Homo sapiens, UniProt P49146); assay: Fluorescence-based cell-based high-throughput dose response assay for agonists of NPY-Y2. [Related pubchem assays: 1703 (Screening assay (CNGC inhibitors).), 1359 (Screening assay (NPY-Y2 potentiators or agonists).), 1304 (Screening assay (NPY-Y1 potentiators or agonists).), 1710 (Screening assay (NPY-Y2 agonists).), 1791 (Summary AID.)]; assay type: functional
[20] = target: Neuropeptide Y receptor type 1 (Homo sapiens, UniProt P25929); assay: Fluorescence-based counterscreen for agonists of NPY-Y2: cell-based high-throughput dose response assay for agonists of NPY-Y1.; assay type: functional
[21] = target: T3, Polyadenylate-binding protein 1; assay: MLLE domain peptide-binding blockers, IC50 – biochemical, fluorescence polarization, FITC-PAM2 peptide, dose response (AID 602259); assay type: functional; conditions: read-out: IC50_Mean
HEK293 [22] = assay: Fluorescence-based counterscreen for potentiators or agonists of NPY-Y2: cell-based high-throughput dose response assay to identify inhibitors of cyclic nucleotide gated ion channel (CNGC) activity. In this assay, the parental HEK293 cell line transfected with a cyclic-nucleotide gated ion channel (CNGC)-based cAMP sensor is used to measure inhibition of isoproterenol-induced CNGC activity by test compound.; assay type: functional; conditions: Homo sapiens
HEK293 [23] = assay: cells; conditions: Homo sapiens
[24] = target: T4, Nucleotide-binding oligomerization domain-containing protein 1 (Homo sapiens, UniProt Q9Y239); assay: blockers of NOD1 pathway activity – revised, SAR follow-up (AID 2333); assay type: functional
T4 sequence (Q9Y239 whole entry): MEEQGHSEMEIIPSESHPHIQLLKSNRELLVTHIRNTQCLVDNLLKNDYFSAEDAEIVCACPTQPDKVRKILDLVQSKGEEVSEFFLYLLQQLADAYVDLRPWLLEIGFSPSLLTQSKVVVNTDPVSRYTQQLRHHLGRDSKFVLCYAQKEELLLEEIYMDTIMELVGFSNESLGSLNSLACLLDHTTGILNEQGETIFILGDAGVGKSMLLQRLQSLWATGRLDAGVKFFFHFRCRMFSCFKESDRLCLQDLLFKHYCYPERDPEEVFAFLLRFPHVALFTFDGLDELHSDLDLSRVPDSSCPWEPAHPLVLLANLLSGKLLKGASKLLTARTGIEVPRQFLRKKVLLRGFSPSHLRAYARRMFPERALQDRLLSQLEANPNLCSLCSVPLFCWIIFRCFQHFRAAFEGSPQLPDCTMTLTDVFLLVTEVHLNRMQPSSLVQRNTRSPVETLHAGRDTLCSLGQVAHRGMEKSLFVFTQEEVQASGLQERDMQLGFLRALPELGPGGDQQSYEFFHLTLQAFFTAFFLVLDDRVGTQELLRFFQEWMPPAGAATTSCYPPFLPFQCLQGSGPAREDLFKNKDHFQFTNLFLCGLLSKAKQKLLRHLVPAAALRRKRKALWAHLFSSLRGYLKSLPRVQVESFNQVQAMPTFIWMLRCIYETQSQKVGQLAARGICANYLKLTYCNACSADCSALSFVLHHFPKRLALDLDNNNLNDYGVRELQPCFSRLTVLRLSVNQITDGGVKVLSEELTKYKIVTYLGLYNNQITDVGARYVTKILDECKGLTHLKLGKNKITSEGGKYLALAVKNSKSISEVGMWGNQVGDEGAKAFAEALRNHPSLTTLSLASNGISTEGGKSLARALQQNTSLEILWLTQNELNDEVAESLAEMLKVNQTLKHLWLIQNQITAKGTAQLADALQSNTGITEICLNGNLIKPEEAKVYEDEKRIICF

[25] = target: Nucleotide-binding oligomerization domain-containing protein 2 (Homo sapiens, UniProt Q9HC29); assay: PubChem AID 2334; assay type: functional
Tumor necrosis factor = Tumor necrosis factor (Homo sapiens, UniProt P01375); assay: analog potency on TNFa NF-kB signaling – cell-based, revised, SAR follow-up (AID 2337); assay type: functional
[26] = target: Peroxisome proliferator-activated receptor gamma/Nuclear receptor corepressor 2 (Homo sapiens, UniProt P37231+Q9Y618); assay type: functional
[27] = target: Photoreceptor-specific nuclear receptor (Homo sapiens, UniProt Q9Y5X4); assay type: functional;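 note: potency for compounds that break the NR2E3 corepressor complex and count as activators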
[28] = target: Cyclin-dependent kinase 5/CDK5 activator 1 (Homo sapiens, UniProt Q00535); assay: blockade of human CDK5 activity – biochemical, cherry-picked samples, set 2, dose response (AID 504545)

T2 sequence (Q9NZJ5 whole entry): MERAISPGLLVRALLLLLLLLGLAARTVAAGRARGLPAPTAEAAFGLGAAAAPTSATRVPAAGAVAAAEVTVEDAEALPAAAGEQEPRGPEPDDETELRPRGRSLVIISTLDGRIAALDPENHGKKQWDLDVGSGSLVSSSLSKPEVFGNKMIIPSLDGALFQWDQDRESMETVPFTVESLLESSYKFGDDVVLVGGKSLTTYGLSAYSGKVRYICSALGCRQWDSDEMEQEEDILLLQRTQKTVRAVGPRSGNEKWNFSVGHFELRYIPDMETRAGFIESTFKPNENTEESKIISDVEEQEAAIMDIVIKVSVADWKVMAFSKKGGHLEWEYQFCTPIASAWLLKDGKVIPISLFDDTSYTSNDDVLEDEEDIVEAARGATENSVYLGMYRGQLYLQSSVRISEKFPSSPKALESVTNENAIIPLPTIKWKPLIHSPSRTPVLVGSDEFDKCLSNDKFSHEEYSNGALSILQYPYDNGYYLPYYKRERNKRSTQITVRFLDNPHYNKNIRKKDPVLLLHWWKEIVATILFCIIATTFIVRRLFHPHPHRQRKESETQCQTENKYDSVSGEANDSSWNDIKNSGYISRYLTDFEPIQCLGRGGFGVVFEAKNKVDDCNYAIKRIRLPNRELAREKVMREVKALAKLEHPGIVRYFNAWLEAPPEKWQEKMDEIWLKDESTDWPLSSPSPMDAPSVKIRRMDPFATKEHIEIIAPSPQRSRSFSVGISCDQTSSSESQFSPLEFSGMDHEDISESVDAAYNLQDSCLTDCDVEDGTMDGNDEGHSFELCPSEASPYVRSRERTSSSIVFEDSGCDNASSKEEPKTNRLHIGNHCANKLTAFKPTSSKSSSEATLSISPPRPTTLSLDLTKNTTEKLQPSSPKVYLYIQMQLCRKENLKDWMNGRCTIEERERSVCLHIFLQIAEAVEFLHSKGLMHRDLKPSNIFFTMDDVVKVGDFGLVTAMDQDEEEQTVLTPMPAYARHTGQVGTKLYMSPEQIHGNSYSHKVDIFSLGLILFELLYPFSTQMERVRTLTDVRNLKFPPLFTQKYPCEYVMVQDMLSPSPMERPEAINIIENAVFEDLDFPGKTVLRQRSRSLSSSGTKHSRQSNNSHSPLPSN
T3 sequence (P11940 whole entry): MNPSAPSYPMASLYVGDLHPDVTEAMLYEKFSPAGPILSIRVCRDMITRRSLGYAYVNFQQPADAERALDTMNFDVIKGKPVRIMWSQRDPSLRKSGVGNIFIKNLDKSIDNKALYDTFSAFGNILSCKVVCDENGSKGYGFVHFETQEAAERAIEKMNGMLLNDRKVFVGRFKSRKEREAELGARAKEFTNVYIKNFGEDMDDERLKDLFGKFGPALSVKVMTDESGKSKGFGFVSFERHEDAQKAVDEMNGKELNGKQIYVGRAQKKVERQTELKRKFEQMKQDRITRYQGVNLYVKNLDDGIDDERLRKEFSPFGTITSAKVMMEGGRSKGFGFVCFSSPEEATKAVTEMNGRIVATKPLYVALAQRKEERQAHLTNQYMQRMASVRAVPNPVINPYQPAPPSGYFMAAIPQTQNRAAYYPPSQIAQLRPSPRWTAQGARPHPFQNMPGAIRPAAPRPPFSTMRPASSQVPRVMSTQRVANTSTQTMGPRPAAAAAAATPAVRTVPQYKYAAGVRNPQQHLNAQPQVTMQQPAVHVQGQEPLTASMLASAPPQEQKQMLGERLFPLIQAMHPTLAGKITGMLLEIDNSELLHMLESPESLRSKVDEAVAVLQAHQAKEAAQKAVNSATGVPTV
Sequence of Aspartyl aminopeptidase (Q8I2J3 whole entry): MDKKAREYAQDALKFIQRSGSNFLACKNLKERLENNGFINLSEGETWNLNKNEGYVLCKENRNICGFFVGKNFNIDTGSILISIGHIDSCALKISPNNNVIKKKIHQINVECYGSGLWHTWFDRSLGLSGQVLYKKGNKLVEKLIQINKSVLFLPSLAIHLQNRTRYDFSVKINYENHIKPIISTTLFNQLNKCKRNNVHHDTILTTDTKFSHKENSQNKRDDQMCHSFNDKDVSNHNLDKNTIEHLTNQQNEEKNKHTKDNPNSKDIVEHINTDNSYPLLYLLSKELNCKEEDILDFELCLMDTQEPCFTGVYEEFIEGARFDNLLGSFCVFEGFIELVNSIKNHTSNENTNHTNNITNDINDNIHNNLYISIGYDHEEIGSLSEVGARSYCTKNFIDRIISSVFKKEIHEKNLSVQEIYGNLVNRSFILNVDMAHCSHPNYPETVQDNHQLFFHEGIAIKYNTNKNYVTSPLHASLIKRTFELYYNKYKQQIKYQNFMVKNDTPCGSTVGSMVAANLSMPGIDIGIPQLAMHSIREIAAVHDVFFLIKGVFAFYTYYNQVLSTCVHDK
Sequence of Alkaline phosphatase, placental type (P05187 whole entry): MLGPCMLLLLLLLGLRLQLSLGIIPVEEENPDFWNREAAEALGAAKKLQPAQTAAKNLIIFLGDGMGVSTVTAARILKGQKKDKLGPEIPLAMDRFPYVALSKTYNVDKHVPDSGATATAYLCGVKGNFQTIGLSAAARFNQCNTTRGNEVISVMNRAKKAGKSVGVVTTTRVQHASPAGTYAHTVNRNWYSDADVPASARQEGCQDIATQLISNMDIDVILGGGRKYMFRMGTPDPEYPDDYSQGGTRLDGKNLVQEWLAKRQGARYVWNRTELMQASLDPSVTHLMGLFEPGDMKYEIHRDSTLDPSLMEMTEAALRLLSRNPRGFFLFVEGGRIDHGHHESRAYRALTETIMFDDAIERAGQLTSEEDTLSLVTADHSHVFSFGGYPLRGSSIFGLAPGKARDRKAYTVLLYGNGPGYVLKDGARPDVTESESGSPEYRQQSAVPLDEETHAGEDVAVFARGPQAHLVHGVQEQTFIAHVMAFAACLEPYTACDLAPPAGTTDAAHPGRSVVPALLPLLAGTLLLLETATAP
Sequence of Nucleotide-binding oligomerization domain-containing protein 2 (Q9HC29 whole entry, the tested form may be a part): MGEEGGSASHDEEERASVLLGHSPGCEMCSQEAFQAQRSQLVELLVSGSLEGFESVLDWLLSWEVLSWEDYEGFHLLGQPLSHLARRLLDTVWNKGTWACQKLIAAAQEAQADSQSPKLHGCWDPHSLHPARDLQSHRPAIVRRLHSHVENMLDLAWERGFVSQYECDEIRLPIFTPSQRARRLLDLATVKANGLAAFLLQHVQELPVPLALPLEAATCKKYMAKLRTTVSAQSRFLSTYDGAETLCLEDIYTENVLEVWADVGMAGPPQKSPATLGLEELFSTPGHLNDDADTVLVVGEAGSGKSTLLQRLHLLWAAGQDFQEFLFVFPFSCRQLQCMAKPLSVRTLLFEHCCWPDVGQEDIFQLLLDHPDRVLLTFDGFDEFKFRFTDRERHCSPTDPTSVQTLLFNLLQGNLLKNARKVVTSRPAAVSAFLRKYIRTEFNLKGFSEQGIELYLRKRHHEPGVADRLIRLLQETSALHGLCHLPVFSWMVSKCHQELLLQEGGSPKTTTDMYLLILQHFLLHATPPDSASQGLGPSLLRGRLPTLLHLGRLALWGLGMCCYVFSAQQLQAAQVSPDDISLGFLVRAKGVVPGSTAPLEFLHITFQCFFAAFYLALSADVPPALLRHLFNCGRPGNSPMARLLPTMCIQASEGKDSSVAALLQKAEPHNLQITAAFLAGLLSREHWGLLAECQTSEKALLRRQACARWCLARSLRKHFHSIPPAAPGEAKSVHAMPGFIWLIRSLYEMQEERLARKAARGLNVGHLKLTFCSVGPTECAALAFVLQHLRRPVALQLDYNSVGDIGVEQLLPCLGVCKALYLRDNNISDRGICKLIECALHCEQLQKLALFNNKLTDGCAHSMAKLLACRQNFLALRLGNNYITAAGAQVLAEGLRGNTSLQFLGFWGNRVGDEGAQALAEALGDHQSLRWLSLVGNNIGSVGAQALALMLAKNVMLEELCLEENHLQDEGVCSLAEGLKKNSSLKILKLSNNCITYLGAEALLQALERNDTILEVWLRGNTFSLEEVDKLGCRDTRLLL
Sequence of Photoreceptor-specific nuclear receptor (Q9Y5X4 whole entry): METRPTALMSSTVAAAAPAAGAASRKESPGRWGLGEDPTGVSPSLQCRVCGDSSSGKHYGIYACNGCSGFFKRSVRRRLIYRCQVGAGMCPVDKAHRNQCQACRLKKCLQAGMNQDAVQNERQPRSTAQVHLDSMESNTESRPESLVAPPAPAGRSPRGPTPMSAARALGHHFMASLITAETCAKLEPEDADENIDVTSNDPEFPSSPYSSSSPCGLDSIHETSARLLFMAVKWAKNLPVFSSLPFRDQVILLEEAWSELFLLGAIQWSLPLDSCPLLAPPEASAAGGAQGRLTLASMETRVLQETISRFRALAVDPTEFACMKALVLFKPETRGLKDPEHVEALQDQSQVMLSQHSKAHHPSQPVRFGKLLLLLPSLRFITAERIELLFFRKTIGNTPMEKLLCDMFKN
Sequence of Procathepsin L (P07711 whole entry): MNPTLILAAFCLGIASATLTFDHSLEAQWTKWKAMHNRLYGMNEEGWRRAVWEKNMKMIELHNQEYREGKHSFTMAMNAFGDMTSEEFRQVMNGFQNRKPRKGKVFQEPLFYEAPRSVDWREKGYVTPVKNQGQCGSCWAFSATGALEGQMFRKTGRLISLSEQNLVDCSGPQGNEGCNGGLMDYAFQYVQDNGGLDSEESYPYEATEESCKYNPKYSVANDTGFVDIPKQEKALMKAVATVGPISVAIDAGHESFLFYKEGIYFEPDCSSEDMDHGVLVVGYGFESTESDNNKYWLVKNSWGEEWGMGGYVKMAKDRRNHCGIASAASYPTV
Sequence of Tumor necrosis factor (P01375 whole entry): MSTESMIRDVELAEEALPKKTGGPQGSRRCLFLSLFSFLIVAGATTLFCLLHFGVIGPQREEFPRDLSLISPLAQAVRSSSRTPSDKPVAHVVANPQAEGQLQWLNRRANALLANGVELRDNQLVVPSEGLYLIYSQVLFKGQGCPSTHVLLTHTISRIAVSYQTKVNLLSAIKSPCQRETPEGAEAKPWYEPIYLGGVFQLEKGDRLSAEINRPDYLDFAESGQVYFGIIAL

Q: For `O=[N+]([O-])c1ncccc1OCCOc1ccc(Cl)cc1Cl`, which EC50 [1] is on record?
A: 29.8 µM (inactive)

Q: For `N=C(N)SCCc1cccc(CCSC(=N)N)c1`, which CC50 [2] is on record?
A: 47.9 µM (active)

Q: With `COCCNC(=O)NC1(C(F)(F)F)Oc2ccc(Cl)cc2O1` (centres undefined) as the molecule, how does the IC50 (Procathepsin L) read?
A: > 59.6 µM (not active)

Q: And the IC50 (Aspartyl aminopeptidase)?
A: 2.12 µM (active)

Q: What about the IC50 [3] of the same molecule?
A: 6.75 µM (active)

Q: And the AC50 [4]?
A: 6.47 µM (active)

Q: Which results are given for `O=C(CCC(=O)Nc1ccc(Cl)cc1Cl)N/N=C/c1ccc([N+](=O)[O-])o1`?
A: AC50 (INS1): 15.2 µM (active); EC50 [5]: < 0.1 µM (active); EC50 [6]: 8.66 µM (inconclusive); EC50 (cells [7]): 0.007 µM (active); IC50 (cells [8]): 0.85 µM (active); CC50 [9]: 14 µM (active); AC50 (Trypanosoma cruzi): < 0.003 µM (active); EC50 [10]: > 50 µM (active); AC50 [11]: 11.4 µM (active); CC50 [12]: 17.4 µM (active); CC50 [13]: > 20 µM (active); EC50 [14]: 2.3 µM (active)

Q: Which EC50 [15] does the source give for `COc1cc(C(C#N)N2CCOCC2)ccc1O` (centres undefined) here?
A: > 55.7 µM (not active)

Q: What about the EC50 [16] of the same molecule?
A: > 55.7 µM (not active)

Q: For `COc1ccc(N=C(S)NC(NC(=O)c2cccc(Cl)c2)C(Cl)(Cl)Cl)c([N+](=O)[O-])c1` (centres undefined), which IC50 [17] is on record?
A: > 66 µM (inactive)

Q: What about the EC50 [18] of the same molecule?
A: > 30 µM (not active)

Q: What about the EC50 [5] of the same molecule?
A: 1.6 µM (active)

Q: What about the EC50 [19] of the same molecule?
A: > 35.4 µM (not active)

Q: What about the EC50 [20] of the same molecule?
A: 16.7 µM (not active)

Q: What about the IC50 [21] of the same molecule?
A: > 66 µM (inactive)

Q: And the EC50 (HEK293 [22])?
A: > 35.4 µM (not active)

Q: For `CCC1CCc2c(sc(NC(=O)c3ccccc3Br)c2C(=O)OC)C1` (centres undefined), which IC50 (HEK293 [23]) is on record?
A: > 20 µM (inactive)

Q: What about the IC50 [24] of the same molecule?
A: > 20 µM (inactive)

Q: And the IC50 [25]?
A: > 20 µM (inactive)

Q: And the IC50 (Tumor necrosis factor)?
A: > 20 µM (inactive)

Q: Which results are given for `O=C(C1=C(O)C(=O)N(CCCN2CCOCC2)C1c1ccc(Cl)cc1)c1cc2ccccc2o1` (centres undefined)?
A: IC50 [26]: 5.14 µM (active); IC50 [27]: > 39.8 µM (not active)

Q: With `Cc1nn(-c2ccc(Cl)cn2)c2c1C(=O)CC(C)(C)C2Br` (centres undefined) as the molecule, how does the AC50 [28] read?
A: 89.2 µM (active)
